From ChEMBL document CHEMBL4257468, “Synthesis and biological evaluation of rapamycin-derived, next generation small molecules” (Medchemcomm, 2018)

Legend:
[1] = target: T1, Peptidyl-prolyl cis-trans isomerase FKBP1A (Homo sapiens, UniProt P62942); test: Inhibition of recombinant human FKBP12 expressed in Escherichia coli using succinyl-Ala-Phe-Pro-Phe-4-nitroanilide as substrate measured after 5 to 10 mins by spectrophotometric method
Saccharomyces cerevisiae = test: Inhibition of FKBP12 in yeast assessed as reduction in cell proliferation
[2] = Apparent terminal half life in Sprague-Dawley rat at 2.5 mg/kg, iv administered as bolus dose by mass spectrometric analysis; format: ADME, organism-based; conditions: in vivo, read-out: betat1/2(app) (converted)
[3] = target: T1, Peptidyl-prolyl cis-trans isomerase FKBP1A; test: Inhibition of [3H]-FK506 binding to recombinant human His6-tagged FKBP12 pretreated for 10 mins followed by [3H]-FK506 addition and measured after 1.5 hrs by microbeta scintillation counting method
[4] = Half life in human administered as oral dose; format: ADME, organism-based; conditions: in vivo

T1 sequence (P62942 whole entry): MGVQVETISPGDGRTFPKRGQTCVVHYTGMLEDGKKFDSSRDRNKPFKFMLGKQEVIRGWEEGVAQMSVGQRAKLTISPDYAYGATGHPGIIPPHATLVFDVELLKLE

Row | Ki [1] [nM] | IC12 (Saccharomyces cerevisiae) [nM] | half-life [2] [h] | IC50 [3] [nM] | half-life [4] [h] | Compound
1 | 9 | 225 | – | – | – | COc1ccc([C@H]2C[C@@H]3CC[C@@H](C)[C@@](O)(O3)C(=O)C(=O)N3CCCC[C@H]3C(=O)O[C@H]([C@H](C)C[C@@H]3CC[C@@H](O)[C@H](OC)C3)CC(=O)[C@H](C)/C=C(\C)[C@@H](O)[C@@H](OC)C(=O)[C@H](C)C[C@H](C)/C=C/C=C/C=C/2C)c(OC)c1
2 | 7 | 20 | – | – | – | CO[C@@H]1C[C@H](C[C@@H](C)[C@@H]2CC(=O)[C@H](C)/C=C(\C)[C@@H](O)[C@@H](OC)C(=O)[C@H](C)C[C@H](C)/C=C/C=C/C=C(\C)[C@@H](OCc3cccc([N+](=O)[O-])c3)C[C@@H]3CC[C@@H](C)[C@@](O)(O3)C(=O)C(=O)N3CCCC[C@H]3C(=O)O2)CC[C@H]1O
3 | 4.5 | 170 | – | – | – | COC(=O)N[C@H]1C[C@@H]2CC[C@@H](C)[C@@](O)(O2)C(=O)C(=O)N2CCCC[C@H]2C(=O)O[C@H]([C@H](C)C[C@@H]2CC[C@@H](O)[C@H](OC)C2)CC(=O)[C@H](C)/C=C(\C)[C@@H](O)[C@@H](OC)C(=O)[C@H](C)C[C@H](C)/C=C/C=C/C=C/1C
4 | – | – | 9.4 | – | – | CO[C@H]1C[C@@H]2CC[C@@H](C)[C@@](O)(O2)C(=O)C(=O)N2CCCC[C@H]2C(=O)O[C@H]([C@H](C)C[C@@H]2CC[C@H](n3cnnn3)[C@H](OC)C2)CC(=O)[C@H](C)/C=C(\C)[C@@H](O)[C@@H](OC)C(=O)[C@H](C)C[C@H](C)/C=C/C=C/C=C/1C [ZOTAROLIMUS]
5 | – | 4 | – | – | – | CO[C@@H]1C[C@H](C[C@@H](C)[C@@H]2CC(=O)[C@H](C)/C=C(\C)[C@@H](O)[C@@H](OC)C(=O)[C@H](C)C[C@H](C)/C=C/C=C/C=C(\C)[C@H](SC)C[C@@H]3CC[C@@H](C)[C@@](O)(O3)C(=O)C(=O)N3CCCC[C@H]3C(=O)O2)CC[C@H]1O
6 | 5 | 6 | – | – | – | CO[C@@H]1C[C@H](C[C@@H](C)[C@@H]2CC(=O)[C@H](C)/C=C(\C)[C@@H](O)[C@@H](OC)C(=O)[C@H](C)C[C@H](C)/C=C/C=C/C=C(\C)[C@@H](OCc3ccccc3)C[C@@H]3CC[C@@H](C)[C@@](O)(O3)C(=O)C(=O)N3CCCC[C@H]3C(=O)O2)CC[C@H]1O
7 | – | 20 | – | – | – | CO[C@@H]1C[C@@H]2CC[C@@H](C)[C@@](O)(O2)C(=O)C(=O)N2CCCC[C@H]2C(=O)O[C@H]([C@H](C)C[C@@H]2CC[C@@H](O)[C@H](OC)C2)CC(=O)[C@H](C)/C=C(\C)[C@@H](O)[C@@H](OC)C(=O)[C@H](C)C[C@H](C)/C=C/C=C/C=C/1C
8 | – | – | – | 53.6 | – | CO[C@H]1C[C@@H]2CC[C@@H](C)[C@@](O)(O2)C(=O)C(=O)N2CCSC[C@H]2C(=O)O[C@H]([C@H](C)C[C@@H]2CC[C@@H](O)[C@H](OC)C2)CC(=O)[C@H](C)/C=C(\C)[C@@H](O)[C@@H](OC)C(=O)[C@H](C)C[C@H](C)/C=C/C=C/C=C/1C
9 | – | 4 | – | – | – | CO[C@@H]1C[C@H](C[C@@H](C)[C@@H]2CC(=O)[C@H](C)/C=C(\C)[C@@H](O)[C@@H](OC)C(=O)[C@H](C)C[C@H](C)/C=C/C=C/C=C(\C)[C@@H](SC)C[C@@H]3CC[C@@H](C)[C@@](O)(O3)C(=O)C(=O)N3CCCC[C@H]3C(=O)O2)CC[C@H]1O
10 | – | 7 | 14 | – | 62 to 82 | CO[C@H]1C[C@@H]2CC[C@@H](C)[C@@](O)(O2)C(=O)C(=O)N2CCCC[C@H]2C(=O)O[C@H]([C@H](C)C[C@@H]2CC[C@@H](O)[C@H](OC)C2)CC(=O)[C@H](C)/C=C(\C)[C@@H](O)[C@@H](OC)C(=O)[C@H](C)C[C@H](C)/C=C/C=C/C=C/1C [SIROLIMUS]
11 | 29 | 210 | – | – | – | CO[C@@H]1C[C@H](C[C@@H](C)[C@@H]2CC(=O)[C@H](C)/C=C(\C)[C@@H](O)[C@@H](OC)C(=O)[C@H](C)C[C@H](C)/C=C/C=C/C=C(\C)C(=O)C[C@@H]3CC[C@@H](C)[C@@](O)(O3)C(=O)C(=O)N3CCCC[C@H]3C(=O)O2)CC[C@H]1O
12 | – | 8 | – | – | – | CO[C@@H]1C[C@H](C[C@@H](C)[C@@H]2CC(=O)[C@H](C)/C=C(\C)[C@@H](O)[C@@H](OC)C(=O)[C@H](C)C[C@H](C)/C=C/C=C/C=C(\C)CC[C@@H]3CC[C@@H](C)[C@@](O)(O3)C(=O)C(=O)N3CCCC[C@H]3C(=O)O2)CC[C@H]1O
13 | 38 | 400 | – | – | – | COc1ccc([C@@H]2C[C@@H]3CC[C@@H](C)[C@@](O)(O3)C(=O)C(=O)N3CCCC[C@H]3C(=O)O[C@H]([C@H](C)C[C@@H]3CC[C@@H](O)[C@H](OC)C3)CC(=O)[C@H](C)/C=C(\C)[C@@H](O)[C@@H](OC)C(=O)[C@H](C)C[C@H](C)/C=C/C=C/C=C/2C)c(OC)c1
14 | 7 | > 1000 | – | – | – | COc1cc(OC)c([C@@H]2C[C@@H]3CC[C@@H](C)[C@@](O)(O3)C(=O)C(=O)N3CCCC[C@H]3C(=O)O[C@H]([C@H](C)C[C@@H]3CC[C@@H](O)[C@H](OC)C3)CC(=O)[C@H](C)/C=C(\C)[C@@H](O)[C@@H](OC)C(=O)[C@H](C)C[C@H](C)/C=C/C=C/C=C/2C)c(OC)c1
15 | 1.5 | 28 | – | – | – | CO[C@@H]1C[C@H](C[C@@H](C)[C@@H]2CC(=O)[C@H](C)/C=C(\C)[C@@H](O)[C@@H](OC)C(=O)[C@H](C)C[C@H](C)/C=C/C=C/C=C(\C)[C@H](c3ccc[nH]3)C[C@@H]3CC[C@@H](C)[C@@](O)(O3)C(=O)C(=O)N3CCCC[C@H]3C(=O)O2)CC[C@H]1O
16 | 3 | 12.5 | – | – | – | CO[C@@H]1C[C@H](C[C@@H](C)[C@@H]2CC(=O)[C@H](C)/C=C(\C)[C@@H](O)[C@@H](OC)C(=O)[C@H](C)C[C@H](C)/C=C/C=C/C=C(\C)[C@@H](c3ccco3)C[C@@H]3CC[C@@H](C)[C@@](O)(O3)C(=O)C(=O)N3CCCC[C@H]3C(=O)O2)CC[C@H]1O
17 | 10 | 28 | – | – | – | CO[C@@H]1C[C@H](C[C@@H](C)[C@@H]2CC(=O)[C@H](C)/C=C(\C)[C@@H](O)[C@@H](OC)C(=O)[C@H](C)C[C@H](C)/C=C/C=C/C=C(\C)[C@@H](c3ccc[nH]3)C[C@@H]3CC[C@@H](C)[C@@](O)(O3)C(=O)C(=O)N3CCCC[C@H]3C(=O)O2)CC[C@H]1O
18 | 3.7 | 220 | – | – | – | COC(=O)N[C@@H]1C[C@@H]2CC[C@@H](C)[C@@](O)(O2)C(=O)C(=O)N2CCCC[C@H]2C(=O)O[C@H]([C@H](C)C[C@@H]2CC[C@@H](O)[C@H](OC)C2)CC(=O)[C@H](C)/C=C(\C)[C@@H](O)[C@@H](OC)C(=O)[C@H](C)C[C@H](C)/C=C/C=C/C=C/1C
19 | 6 | 3 | – | – | – | CO[C@@H]1C[C@H](C[C@@H](C)[C@@H]2CC(=O)[C@H](C)/C=C(\C)[C@@H](O)[C@@H](OC)C(=O)[C@H](C)C[C@H](C)/C=C/C=C/C=C(\C)[C@H](c3ccco3)C[C@@H]3CC[C@@H](C)[C@@](O)(O3)C(=O)C(=O)N3CCCC[C@H]3C(=O)O2)CC[C@H]1O
20 | 1 | 6 | – | – | – | CO[C@@H]1C[C@H](C[C@@H](C)[C@@H]2CC(=O)[C@H](C)/C=C(\C)[C@@H](O)[C@@H](OC)C(=O)[C@H](C)C[C@H](C)/C=C/C=C/C=C(\C)[C@@H](OCc3ccc(Cl)cc3)C[C@@H]3CC[C@@H](C)[C@@](O)(O3)C(=O)C(=O)N3CCCC[C@H]3C(=O)O2)CC[C@H]1O

Row | Compound | Ki [1] [nM] | IC12 (Saccharomyces cerevisiae) [nM] | half-life [2] [h] | IC50 [3] [nM] | half-life [4] [h]
21 | CCO[C@H]1C[C@@H]2CC[C@@H](C)[C@@](O)(O2)C(=O)C(=O)N2CCCC[C@H]2C(=O)O[C@H]([C@H](C)C[C@@H]2CC[C@@H](O)[C@H](OC)C2)CC(=O)[C@H](C)/C=C(\C)[C@@H](O)[C@@H](OC)C(=O)[C@H](C)C[C@H](C)/C=C/C=C/C=C/1C | 3.5 | 10 | – | – | –
